{
  "source": "patent US20100285959A1",
  "about": "“HERBICIDAL MIXTURES” (priority 2006, published 2010)",
  "key": {"[1]": {"system": "flint corn (ZEAMI)", "test": "Test 11 field trial, preemergence", "assay_type": "in vivo, Zea mays L. ssp. indurata", "design": "scale not given here", "conditions": "atrazine 1500 or metolachlor 2500 g a.i./ha alone", "text": "Corn seeds (hybrid ‘Pioneer 3041’) were planted in mid spring season, 5 cm deep in a clay soil having 2.6% organic matter and a pH of 5.6. Plots were 8 m long by 1.5 m wide with rows spaced 80 cm apart. Seeds were spaced 15 cm apart within the rows. The field was managed using conventional tillage practices. […] Treatments consisted of Compound 2 or\nGoosegrass was not evaluated 16 or 91 days after application."}, "[2]": {"system": "barnyardgrass (ECHCG)", "test": "Test 28 greenhouse, postemergence", "assay_type": "in vivo, Echinochloa crus-galli", "conditions": "26 DAA", "protocol": "A greenhouse test was conducted to evaluate the effects on the plant species corn (ZEAMD, Zea mays ssp. indentata), sorghum (SORVU, Sorghum vulgare L.), dry-seeded rice (ORYSA, Oryza sativa L.), wheat (TRZAW, Triticum aestivum L.), ivyleaf morningglory (IPOHE, Ipomoea hederacea (L.) JACQ.), and barnyardgrass (ECHCG, Echinochloa crus-galli (L.) P. BEAUV.), of mixtures of Compound 2 with isoxadifen-ethyl. Corn, sorghum, rice, wheat, ivyleaf morningglory and barnyardgrass seeds were planted in RediEarth, a commercial potting medium. […] Corn plants were treated postemergence at the V2 growth stage, and sorghum, rice, wheat, ivyleaf morningglory, and barnyardgrass plants were treated postemergence at the 3-leaf stage. […] Each treatment was replicated three times. […] Plants were watered as needed."}, "[3]": {"system": "galium (GALAP)", "test": "Test 24 growth chamber, postemergence", "assay_type": "in vivo, Galium aparine", "conditions": "17 DAA", "protocol": "(§1) Plants were treated postemergence at the 2-4 leaf growth stage, and each treatment was replicated three times. […] Plants were watered as needed. […] Results for barley and wheat are the means across varieties of the three replicates, and results for the weeds are the means of the three replicates."}, "[4]": {"system": "wild chamomile (MATCH)", "test": "Test 24 growth chamber, postemergence", "assay_type": "in vivo, Matricaria chamomilla", "conditions": "17 DAA", "protocol": "as §1"}, "[5]": {"system": "winter wheat (TRZAW)", "test": "Test 24 growth chamber, postemergence", "assay_type": "in vivo, Triticum aestivum", "conditions": "17 DAA", "protocol": "as §1"}, "[6]": {"system": "giant ragweed (AMBTR)", "test": "Test 26 field trial, postemergence", "assay_type": "in vivo, Ambrosia trifida", "text": "(§2) Corn seeds (hybrid ‘Pioneer 31G96’) were planted in mid spring season, 3.8 cm deep in a silt loam soil having 2% organic matter and a pH of 6.6. Plots were 6.1 m long by 3.0 m wide with rows spaced 76 cm apart. Seeds were spaced 15 cm apart within the rows. The field was managed using conventional tillage practices. […] All treatments also included a surfactant. […] Some of the weed species could not be evaluated at every timing. […] Results are the means of the three replicates."}, "[7]": {"system": "velvetleaf (ABUTH)", "test": "Test 17 greenhouse, post- and preemergence", "assay_type": "in vivo, Abutilon theophrasti", "conditions": "12 DAA", "text": "Plants were watered as needed."}, "[8]": {"system": "ivyleaf morningglory (IPOHE)", "test": "Test 26 field trial, postemergence", "assay_type": "in vivo, Ipomoea hederacea", "design": "scale not given here", "text": "as §2"}, "[9]": {"system": "mixed hardwoods (MXDSP)", "test": "Test 13 field trial, postemergence, brush weeds", "assay_type": "in vivo, Nyssa sylvatica, Acer rubrum, Liquidambar styraciflua", "conditions": "56 DAA; g a.i./ha: Cpd 2 250; Fosamine-ammonium 6700", "text": "(§3) Plots were established in non-crop land and were 6.1 m long by 3.0 m wide. […] Treatments were applied postemergence to the brush weeds using a backpack sprayer delivering a spray volume of 468 L/ha using a pressure of 241 kPa. […] All treatments also included a surfactant. […] Results are the means of the three replicates."}, "[10]": {"system": "redroot pigweed (AMARE)", "test": "Test 25 field trial, postemergence, growth as percent of control", "assay_type": "in vivo, Amaranthus retroflexus", "text": "Corn seeds (hybrid ‘Pioneer 31G96 RR’) were planted in mid spring season, 3.8 cm deep in a clay loam soil having 2% organic matter and a pH of 6.6. Plots were 6.1 m long by 3.0 m wide with rows spaced 76 cm apart. Seeds were spaced 15 cm apart within the rows. The field was managed using conventional tillage practices. […] Giant ragweed and Pennsylvania smartweed could only be evaluated 14 days after application. […] Results are the means of the three replicates. This growth inhibition data was converted to results in the form of “plant growth as a percent of control plant growth” using the calculation “100 minus growth inhibition”.\nWhen this form of Colby's Equation is used, if the observed effects on weeds are less than the expected values, the mixture is synergistic."}, "[11]": {"system": "oak species (QUESS)", "test": "Test 13 field trial, postemergence, brush weeds", "assay_type": "in vivo, Quercus L. spp.", "conditions": "56 DAA; g a.i./ha: Cpd 2 250; Fosamine-ammonium 6700", "text": "as §3"}},
  "data": [
    {"molecule": "CCNc1nc(Cl)nc(NC(C)C)n1", "note": "[Atrazine, atrazine, reference compound]", "values": [
      {"measurement": "ZEAMI Obs", "setting": "[1]; 16 DAA", "result": 0},
      {"measurement": "ZEAMI Obs", "setting": "[1]; 30 DAA", "result": 0},
      {"measurement": "ZEAMI Obs", "setting": "[1]; 44 DAA", "result": 0},
      {"measurement": "ZEAMI Obs", "setting": "[1]; 62 DAA", "result": 0},
      {"measurement": "ZEAMI Obs", "setting": "[1]; 91 DAA", "result": 0}
    ]},
    {"molecule": "COC(=O)c1nc(C2CC2)nc(N)c1Cl", "note": "[Compound 2, methyl 6-amino-5-chloro-2-cyclopropyl-4-pyrimidinecarboxylate]", "values": [
      {"measurement": "ECHCG Obs", "setting": "[2]; Cpd 2 32 g a.i./ha", "result": 83},
      {"measurement": "ECHCG Obs", "setting": "[2]; Cpd 2 64 g a.i./ha", "result": 87},
      {"measurement": "GALAP Obs (scale 0 to 100)", "setting": "[3]; Cpd 2 4 g a.i./ha", "result": 73},
      {"measurement": "GALAP Obs (scale 0 to 100)", "setting": "[3]; Cpd 2 8 g a.i./ha", "result": 75},
      {"measurement": "GALAP Obs (scale 0 to 100)", "setting": "[3]; Cpd 2 16 g a.i./ha", "result": 87},
      {"measurement": "MATCH Obs (scale 0 to 100)", "setting": "[4]; Cpd 2 4 g a.i./ha", "result": 55},
      {"measurement": "MATCH Obs (scale 0 to 100)", "setting": "[4]; Cpd 2 8 g a.i./ha", "result": 65},
      {"measurement": "MATCH Obs (scale 0 to 100)", "setting": "[4]; Cpd 2 16 g a.i./ha", "result": 72},
      {"measurement": "TRZAW Obs (scale 0 to 100)", "setting": "[5]; Cpd 2 4 g a.i./ha", "result": 21},
      {"measurement": "TRZAW Obs (scale 0 to 100)", "setting": "[5]; Cpd 2 8 g a.i./ha", "result": 33},
      {"measurement": "TRZAW Obs (scale 0 to 100)", "setting": "[5]; Cpd 2 16 g a.i./ha", "result": 39},
      {"measurement": "AMBTR Obs", "setting": "[6]; 14 DAA, 30 g a.i./ha", "result": 97},
      {"measurement": "AMBTR Obs", "setting": "[6]; 28 DAA, 30 g a.i./ha", "result": 100},
      {"measurement": "AMBTR Obs", "setting": "[6]; 28 DAA, 45 g a.i./ha", "result": 100},
      {"measurement": "AMBTR Obs", "setting": "[6]; 28 DAA, 60 g a.i./ha", "result": 100},
      {"measurement": "Obs response, scale 0 to 100", "setting": "[7]; Postemergence, 15 g a.i./ha", "result": 29},
      {"measurement": "Obs response, scale 0 to 100", "setting": "[7]; Postemergence, 30 g a.i./ha", "result": 30},
      {"measurement": "Obs response, scale 0 to 100", "setting": "[7]; Postemergence, 45 g a.i./ha", "result": 45},
      {"measurement": "Obs response, scale 0 to 100", "setting": "[7]; Preemergence, 15 g a.i./ha", "result": 10},
      {"measurement": "Obs response, scale 0 to 100", "setting": "[7]; Preemergence, 30 g a.i./ha", "result": 24},
      {"measurement": "Obs response, scale 0 to 100", "setting": "[7]; Preemergence, 45 g a.i./ha", "result": 45},
      {"measurement": "IPOHE Obs", "setting": "[8]; 14 DAA, 30 g a.i./ha", "result": 90},
      {"measurement": "IPOHE Obs", "setting": "[8]; 14 DAA, 45 g a.i./ha", "result": 67},
      {"measurement": "IPOHE Obs", "setting": "[8]; 14 DAA, 60 g a.i./ha", "result": 98},
      {"measurement": "IPOHE Obs", "setting": "[8]; 28 DAA, 30 g a.i./ha", "result": 95},
      {"measurement": "IPOHE Obs", "setting": "[8]; 28 DAA, 45 g a.i./ha", "result": 99},
      {"measurement": "IPOHE Obs", "setting": "[8]; 28 DAA, 60 g a.i./ha", "result": 98},
      {"measurement": "IPOHE Obs", "setting": "[8]; 56 DAA, 30 g a.i./ha", "result": 88},
      {"measurement": "IPOHE Obs", "setting": "[8]; 56 DAA, 45 g a.i./ha", "result": 96},
      {"measurement": "IPOHE Obs", "setting": "[8]; 56 DAA, 60 g a.i./ha", "result": 98},
      {"measurement": "MXDSP Obs", "setting": "[9]", "result": 45},
      {"measurement": "AMARE Obs (percent of control)", "setting": "[10]; Cpd 2 15 g a.i./ha, 14 DAA", "result": 47, "unit": "%"},
      {"measurement": "AMARE Obs (percent of control)", "setting": "[10]; Cpd 2 15 g a.i./ha, 28 DAA", "result": 38, "unit": "%"},
      {"measurement": "AMARE Obs (percent of control)", "setting": "[10]; Cpd 2 15 g a.i./ha, 56 DAA", "result": 0, "unit": "%"},
      {"measurement": "AMARE Obs (percent of control)", "setting": "[10]; Cpd 2 30 g a.i./ha, 14 DAA", "result": 35, "unit": "%"},
      {"measurement": "AMARE Obs (percent of control)", "setting": "[10]; Cpd 2 30 g a.i./ha, 28 DAA", "result": 22, "unit": "%"},
      {"measurement": "AMARE Obs (percent of control)", "setting": "[10]; Cpd 2 30 g a.i./ha, 56 DAA", "result": 0, "unit": "%"},
      {"measurement": "AMARE Obs (percent of control)", "setting": "[10]; Cpd 2 45 g a.i./ha, 14 DAA", "result": 28, "unit": "%"},
      {"measurement": "AMARE Obs (percent of control)", "setting": "[10]; Cpd 2 45 g a.i./ha, 28 DAA", "result": 20, "unit": "%"},
      {"measurement": "AMARE Obs (percent of control)", "setting": "[10]; Cpd 2 45 g a.i./ha, 56 DAA", "result": 28, "unit": "%"},
      {"measurement": "QUESS Obs", "setting": "[11]", "result": 33}
    ]}
  ]
}
